Laboratory results reported in patent US20260191900A1, “Biofilm Treatment” (Phytoceutical Limited, priority 2022, published 2026).
In brackets after ≈: the same amount, converted by molar mass.

What was measured:
[1] = system: S. aureus (NCTC12493; MRSA); assay: MIC, broth microdilution; type: cell-based, Staphylococcus aureus; conditions: for MIC: Staphylococcus aureus
Procedure: (§1) Staphylococcus aureus (NCTC12493; MRSA) and Pseudomonas aeruginosa (NCTC12903) were stored in Pro-Lab Diagnostics Microbank (Fisher, Basingstoke UK) tubes at −80° C. before streaking onto Nutrient Agar (Oxoid, Basingstoke, UK) and incubated at 37° C., aerobically for 18 hours.
(§2) Minimum inhibitory concentrations (MICs) were determined using the broth microdilution method (EUCAST, Clinical Microbiology and Infection (2003), 9(8)). The inoculated liquid culture (grown dynamically overnight at 37° C. in MHB) was adjusted to obtain a ~0.1 OD at 600 nm, equivalent to a 0.5 McFarland Standard. A range of concentrations (diluted in MHB) for each of the compounds were prepared in 96-well plates, followed by the addition of the inoculated media. The plates were then incubated statically for 18 hours at 37° C. Following the incubation period, the lowest concentration of compound presenting an inhibition of bacterial growth was labelled the MIC.

[2] = system: P. aeruginosa (NCTC12903); assay: MIC, broth microdilution; type: cell-based, Pseudomonas aeruginosa; conditions: for MIC: Pseudomonas aeruginosa, NCTC12903
Procedure: as §1, §2

[3] = system: S. aureus (NCTC12493) biofilm; assay: Crystal violet biofilm clearance assay; type: cell-based, Staphylococcus aureus; conditions: for amount of biofilm present after treatment (CV stain, OD 600 nm): FIG. 2, 0.000625% PHMB, 10% TPGS, 10% EM, 6.25% EtOH, dosed at day 0 to 7, 24 hours, vs untreated control; for percentage biofilm remaining / amount of biofilm remaining: FIG. 3, 0.1% PHMB, 10% TPGS or both; for percentage biofilm remaining: treated at day 0; for amount of biofilm remaining: treatment at day 1, 2 or 3
Procedure: as §1
(§3) The two strains of bacteria were produced using different media, with no flocculation occurring. S. aureus was produced using Dulbecco's Modified Eagle Medium and took five to seven days to grow a mature biofilm. P. aeruginosa was produced using M9 minimal media and 1% glucose media and took three days to grow a mature biofilm. Alternatively, Luria-Bertani (LB) broth could be used to grow P. aeruginosa.
(§4) The biofilm growth method and visualisation/analysis techniques were followed from J. Merritt et al. (Curr Protoc Microbiol. (2005); Chapter 1:Unit 1B.1), with modifications. S. aureus (NCTC12493) was grown in DMEM and P. aeruginosa (NCTC12903) was grown in M9 minimal media+1% glucose. Inoculated liquid culture was diluted in 1:100 in their respective medias. Into 96-well plates, 100 μL of the inoculant was added to each well. Following this, the plate was covered with a lid and incubated at 37° C. for 24-hour intervals of up to 7 days, aerobically. The compounds were added and incubated at 37° C. for a further 24 hours. Planktonic bacteria were removed using a pipette, and the biofilms were washed with Milli-Q water. To each well, 125 μL of 0.1% crystal violet (CV) solution was added and left at room temperature for 10-15 minutes. After this, the 0.1% CV solution was removed, and the well was washed until the waste ran clear. The stain was left to air-dry, before 200 μL 30% acetic acid was added to each well for 15 minutes on a plate shaker. To a new 96-well plate, 125 μL stained biofilm solution was transferred and the optical density was read at 600 nm. A comparison was made between the uninhibited biofilm and any biofilm reductions capabilities of the added compounds.
(§5) The candidate compounds were each, therefore, applied at their respective MIC values.
(§6) Bacterial growth kinetics of S. aureus grown in DMEM and P. aeruginosa grown in M9 minimal media+1% glucose were determined. The amount of biofilm remaining was determined using the CV staining method as described above.

[4] = system: P. aeruginosa (NCTC12903) biofilm; assay: Crystal violet biofilm clearance assay; type: cell-based, Pseudomonas aeruginosa; conditions: for amount of biofilm present after treatment (CV stain, OD 600 nm): FIG. 2, 0.000625% PHMB, 10% TPGS, 10% EM, 6.25% EtOH, dosed at different days, 24 hours, vs untreated control; for percentage biofilm remaining / amount of biofilm remaining: FIG. 3, 0.1% PHMB, 10% TPGS or both; for percentage biofilm remaining: treated at day 0; for amount of biofilm remaining: treatment at day 1, 2 or 3
Procedure: as §1, §3, §4, §5, §6

Fibroblasts [5] = assay: Toxicity of retinol to fibroblasts; type: cell-based
Fibroblasts [6] = assay: SRS-SHG microscopy of fibroblasts exposed to retinol; type: cell-based; conditions: 0.31 μg/mL or 0.25 μg/mL; days 1, 3 and 7
Procedure: Fibroblasts were exposed to compositions containing 0.31 μg/mL or 0.25 μg/mL, and a control sample with no retinol, over a period of 7 days. SRS-SHG microscopy was used to determine absorption of the retinol by the fibroblasts at days 1, 3 and 7 after exposure.

[7] = Ex-vivo skin penetration, Franz diffusion cells, SRS imaging; type: in vitro ADME, pig
Procedure: Skin penetration studies were performed on dermatomed porcine skin, dosed using vertical Franz diffusion cells.
A scalpel was used to cut each Franz cell disc into a smaller portion for sectioning, and was sanitised with ethanol between samples. A fresh cryostat blade was used for each sample. The cryostat temperature was set to −33° C., and samples equilibrated in the cryostat for approximately 45 minutes prior to sectioning.
After 24 hours, the skin surface was cleaned and cross-sections 30 μm thick were prepared using cryosectioning and mounted onto glass coverslips. SRS (stimulated raman spectroscopy) imaging was used to observe the penetration of the composition through the skin.
SRS imaging used a Leica SP8 microscope with SRS and CARS. A PicoEmerald-S laser system output two pulsed 2 ps laser beams (a 1031 nm Stokes beam spatially and temporally overlapped with a tuneable pump beam). The Stokes beam was modulated at 20 MHz and stimulated Raman loss signals were detected in transmission using a lock-in amplifier (UHFLI, Zurich instruments). CARS and SHG/fluorescence signals were epi-detected in separate PMT channels. A water immersion×25 magnification lens (0.95 NA, Leica) was used. A short working distance air condenser (0.9 NA, Leica) was used. Laser power was 30%, which corresponded to approximately 10 mW for the pump beam and 30 mW for the Stokes beam at the sample. […]

S. aureus (NCTC12493) = assay: CFU count after treatment of biofilm; type: cell-based, Staphylococcus aureus; conditions: FIG. 3; 10% TPGS or 0.1% PHMB with 10% TPGS; treated on any day
Procedure: (§7) The amount of biofilm remaining was determined using the CV staining method as described above. CFU count was determined by the following method: The inoculated liquid culture (grown dynamically overnight at 37° C. in liquid growth media) was spun down in a centrifuged (at max (13.3) speed for 5 minutes) (reference). The supernatant was removed and resuspend in PBS (1:100 dilution). Into each well, 20 μL of inoculated culture LB broth was added to 180 μL LB broth. […] For the untreated wells, 1 μL of PBS was added. The 96-well plate was placed in a TECAN measuring at OD600 over 24 hours at 15-minute intervals. Resulting growth kinetic experiments were conducted using mid-logarithmically growing cultures. […] Following this, the wells were homogenised, and 20 μL samples were plate spotted onto nutrient agar (NA). These plates were incubated for 18 hours at 37° C. before colonies were counted.

[8] = system: P. aeruginosa (NCTC12903); assay: CFU count after treatment of biofilm; type: cell-based, Pseudomonas aeruginosa; conditions: FIG. 3; 10% TPGS or 0.1% PHMB with 10% TPGS; treated on any day
Procedure: as §7

[9] = concentration before inoculation, 18 hours at 37° C., vehicle ethanol or water
[10] = concentration before inoculation, 18 hours at 37° C., vehicle ethanol, water or none
[11] = vehicle TPGS (curcumin solubilised in TPGS)

For `COc1cc(/C=C/C(=O)CC(=O)/C=C/c2ccc(O)c(OC)c2)ccc1O` [Curcumin], the MIC [1, 9] was 2 mg/mL (≈ 5.43 mM), the “MIC, S. aureus” value [1, 10] was 0.2 w/v % and the “MIC, S. aureus” value [1, 11] was 0.0125 w/v %. The MIC [2, 9] was 2 mg/mL (≈ 5.43 mM), the “MIC, P. aeruginosa” value [2, 10] was 0.2 w/v % and the “MIC, P. aeruginosa” value [2, 11] was 0.1 w/v %.
In the case of `CCO` [Ethanol], the “amount of biofilm present after treatment (CV stain, OD 600 nm)” value (from here on “amount of biofilm present”) [3] is reported as “at TO there was an increase in biofilm”, the “amount of biofilm present” value [4] is reported as “little to no effect” and the “MIC, S. aureus” value [1, 10] is reported as 6.25 w/v %. For the same molecule, the “MIC, P. aeruginosa” value [2, 10] was 6.25 w/v %.
For `CC1=C(/C=C/C(C)=C/C=C/C(C)=C/CO)C(C)(C)CCC1` [Retinol], the “concentration not toxic to fibroblasts” value (Fibroblasts [5]) was ≤ 6000 ng/mL, the “response of fibroblasts (SHG signals outside of nuclei)” value (Fibroblasts [6]) was “concentration and time dependent response” and the “depth through the skin down to which retinol was observed” value ([7]; composition comprising retinol and TPGS applied to pig skin for 24 hours) was 60 μm. For the same molecule, the “penetration of the retinol into the skin” value ([7]; similar experiment, composition including PHMB (1 wt %)) was “did not show penetration”, the MIC [1, 9] was 50 mg/mL (≈ 175 mM) and the “MIC, S. aureus” value [1, 10] was 5 w/v %. The MIC [2, 9] was 50 mg/mL (≈ 175 mM) and the “MIC, P. aeruginosa” value [2, 10] was 5 w/v %.
With Polysorbate 40 the “MIC, S. aureus” value [1, 10] was >25% w/v % and the “MIC, P. aeruginosa” value [2, 10] was >25% w/v %.
For polyhexamethylene biguanide [PHMB], the “amount of biofilm present” value [3] was “good biofilm clearance”, the percentage biofilm remaining [3] was “fully reducing the biofilm remaining” and the “amount of biofilm remaining” value [3] was “effective”. The “amount of biofilm present” value [4] was “an increase in biofilm when dosed on T1”, the percentage biofilm remaining [4] was “fully reducing the biofilm remaining” and the “amount of biofilm remaining” value [4] was “effective”. The “concentration inhibiting S. aureus growth (MIC)” value [1] was 0.000625 % v/v, the “MIC, S. aureus” value [1, 10] was 0.000625 w/v % and the “concentration inhibiting P. aeruginosa growth (MIC)” value [2] was 0.005 % v/v. The “MIC, P. aeruginosa” value [2, 10] was 0.005 w/v %.
For “tocopheryl polyethylene glycol succinate [TPGS]”, the CFU count (S. aureus (NCTC12493)) was “remained substantially constant”, the “amount of biofilm present” value [3] was “a reduction in the amount of biofilm present” and the percentage biofilm remaining [3] was “fully reducing the biofilm remaining”. For the same molecule, the “amount of biofilm remaining” value [3] was “effective”, the CFU count [8] was “remained substantially constant” and the “amount of biofilm present” value [4] was “the most effective compound”. For the same molecule, the percentage biofilm remaining [4] was “fully reducing the biofilm remaining”, the “amount of biofilm remaining” value [4] was “effective” and the “concentration inhibiting S. aureus growth (MIC)” value [1] was 10 % v/v. The “MIC, S. aureus” value [1, 9] was “(200) mg/mL”, the “MIC, S. aureus” value [1, 10] was 20 w/v % and the “concentration inhibiting P. aeruginosa growth (MIC)” value [2] was 20 % v/v. The “MIC, P. aeruginosa” value [2, 9] was “(200) mg/mL” and the “MIC, P. aeruginosa” value [2, 10] was 20 w/v %.
